± gives the expanded uncertainty stated by the source.
Test: mn = molality of the nth substance listed, in mol/kg
Details: 350 kPa, Liquid, Extra sensitive DSC

NCC(=O)O [2-aminoacetic acid] + O
apparent molar heat capacity [J/K/mol]
Details	m1 = 0.015	m1 = 0.03	m1 = 0.0503	m1 = 0.0804	m1 = 0.125	m1 = 0.2493	m1 = 0.5056
278.15 K	8 ± 52	–	–	–	–	–	4.4 ± 1.9
283.15 K	25 ± 52	1	–	12.3 ± 13	10.3 ± 8.3	12.4 ± 4.2	18.7 ± 1.9
288.15 K	38 ± 52	14 ± 29	11 ± 17	25.5 ± 13	23.6 ± 8.3	25.3 ± 4.2	30.5 ± 1.8
293.15 K	50 ± 52	25 ± 29	24 ± 17	36.5 ± 12	34.1 ± 7.9	35.4 ± 4.1	40.4 ± 1.7
298.15 K	59 ± 52	33 ± 29	34.8 ± 17	45.4 ± 12	42.9 ± 7.6	44 ± 3.9	48.3 ± 1.8
303.15 K	67 ± 52	41 ± 29	43.7 ± 17	52.8 ± 12	50.1 ± 7.7	51.1 ± 4	55.2 ± 1.8
308.15 K	73 ± 52	48 ± 29	51 ± 17	59.1 ± 12	55.8 ± 7.6	57 ± 3.9	60.9 ± 1.8
313.15 K	78 ± 52	54 ± 29	57.3 ± 17	64.5 ± 12	61.3 ± 7.6	62.4 ± 4	66 ± 1.8
318.15 K	83 ± 52	59 ± 29	62.2 ± 17	68.8 ± 12	65.7 ± 7.7	66.8 ± 4	70.2 ± 1.8
323.15 K	86 ± 52	63 ± 28	66.8 ± 17	72.7 ± 12	69.3 ± 7.6	70.6 ± 4	73.9 ± 1.9
328.15 K	90 ± 52	67 ± 28	70.8 ± 17	76 ± 12	72.6 ± 7.5	73.8 ± 3.9	77.1 ± 1.9
333.15 K	92 ± 52	70 ± 28	74.5 ± 17	79 ± 12	75.4 ± 7.5	76.7 ± 3.9	80 ± 1.9
338.15 K	95 ± 52	73 ± 28	78 ± 17	81.6 ± 12	77.9 ± 7.6	79.2 ± 3.9	82.5 ± 1.9
343.15 K	97 ± 52	75 ± 28	80.6 ± 16	83.6 ± 12	80 ± 7.6	81.3 ± 3.9	84.6 ± 1.9
348.15 K	99 ± 52	77 ± 28	83.1 ± 16	85.6 ± 12	81.8 ± 7.6	83.1 ± 3.9	86.4 ± 1.9
353.15 K	101 ± 52	79 ± 28	85.3 ± 16	87.3 ± 12	83.4 ± 7.6	84.8 ± 4	88.1 ± 1.9
358.15 K	102 ± 52	81 ± 28	87.1 ± 16	88.9 ± 12	84.8 ± 7.7	86.2 ± 4	89.5 ± 1.9
363.15 K	103 ± 52	82 ± 28	88.9 ± 17	90.2 ± 12	86 ± 7.7	87.3 ± 4	90.7 ± 1.9
368.15 K	104 ± 52	83 ± 28	90.2 ± 16	91 ± 12	86.9 ± 7.7	88.3 ± 4	91.6 ± 1.9
373.15 K	104 ± 52	83 ± 28	91.1 ± 16	91.7 ± 12	87.5 ± 7.7	89 ± 4	92.4 ± 1.9
378.15 K	104 ± 52	83 ± 27	92.1 ± 16	92.3 ± 12	87.9 ± 7.6	89.4 ± 3.9	92.9 ± 1.9
383.15 K	103.9 ± 52	84 ± 28	93.3 ± 16	92.9 ± 12	88.2 ± 7.6	89.9 ± 3.9	93.3 ± 2
388.15 K	103.5 ± 52	84 ± 28	94.5 ± 16	93.1 ± 12	88.2 ± 7.6	90 ± 3.9	93.6 ± 2
393.15 K	101.4 ± 52	84 ± 28	95.6 ± 16	92.9 ± 12	87.7 ± 7.4	89.7 ± 3.9	93.6 ± 1.9

— the NIST ThermoML archive (doi:10.1016/j.jct.2005.06.017)
